The source of these data is patent US11795460B2, “Compositions and methods for TTR gene editing and treating ATTR amyloidosis” (Intellia Therapeutics, Inc., priority 2017, dated 2023).

Data set [1] concerns TTR. Nature of the data set: TTR editing in primary human hepatocytes transfected with Spy Cas9 mRNA and dgRNAs (Table 9). The format is cell-based. The settings on record: dgRNA co-transfected with Spy Cas9 mRNA (SEQ ID NO:2). The essentials: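 PHH sequentially lipofected with Spy Cas9 mRNA (100 ng), then crRNA plus tracrRNA (25 nM each) dual-guide lipoplex. Cells harvested 24, 48 or 72 h post-transfection; TTR target amplicons sequenced on Illumina MiSeq, editing given as percent reads with indels or substitutions over total reads.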

Data set [2] deals with TTR. Nature of the data set: TTR editing in HUH7 cells transfected with Spy Cas9 mRNA and dgRNAs (Table 5). The format is cell-based, human. The note with it: HUH7 cells co-transfected with Spy Cas9 mRNA (SEQ ID NO:2) and dgRNAs. The essentials: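 HUH7 cells were transfected sequentially with Spy Cas9 mRNA (100 ng) then crRNA and tracer RNA (25 nM each) by lipofection. Genomic DNA was collected 24, 48 or 72 h later. Target site was PCR-amplified and NGS-sequenced, and percent editing was taken as reads with indels or substitutions over total reads.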

The subject of data set [3] is TTR. Nature of the data set: TTR editing in HEK293_Cas9 cells transfected with dgRNAs (Table 4). The format is cell-based, human. The settings on record: HEK293_Cas9 cells (constitutively express Spy Cas9) transfected with dgRNAs. The essentials:
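Spy Cas9-expressing HEK293 cells were transfected by lipofection with crRNA (25 nM) plus trRNA (25 nM) and harvested at 24, 48 or 72 h. The target site was PCR-amplified and sequenced on MiSeq. Percent editing is reads with indels or substitutions over total reads.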

In data set [4] the test system is TTR. Nature of the data set: TTR editing in primary human hepatocytes electroporated with Spy Cas9 protein loaded with dgRNAs (Table 7). The format is cell-based. The settings on record: dgRNA electroporated with Spy Cas9 protein (RNP). The essentials: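 Primary human or cynomolgus hepatocytes electroporated (Lonza P3 buffer, program EX-147) with Spy Cas9 RNP carrying pre-annealed crRNA/trRNA dual guides. Genomic DNA harvested at 24, 48 or 72 h; target amplicons sequenced by Illumina MiSeq. Percent editing = reads with indels or substitutions over total reads.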

Consider “GGAGUAGGGGCUCAGCAGGG (tested as dual guide RNA, chemistry not given here) [CR003382]”, for which the “Avg % Deletion” value with TTR [1] is reported as 0.00%; in the data set with TTR [2], 34.47%; in the data set on TTR [3] it was 25.49%; with TTR [4], 0.43%. Further, the “Avg % Edit” value in the data set on TTR [1] was 0.97%; in the data set with TTR [2], 34.47%; in the data set on TTR [3], 29.95%; in the data set on TTR [4], 8.40%. In addition, the “Avg % Insert” value in the data set on TTR [1] is 0.97%; in the data set with TTR [2], 0.14%; in the data set with TTR [3], 4.46%; with TTR [4], 8.10%.
Regarding “UCUAGAACUUUGACCAUCAG (tested as dual guide RNA, chemistry not given here) [CR003345]”, the “Avg % Deletion” value amounted to 18.45% in the data set on TTR [1], 32.18% in the data set on TTR [2], 16.01% in the data set with TTR [3] and 13.57% in the data set on TTR [4]. Moreover, the “Avg % Edit” value with TTR [1] is listed as 50.65%; in the data set with TTR [2], 72.43%; with TTR [3] it was 35.02%; with TTR [4], 48.07%. Moreover, the “Avg % Insert” value with TTR [1] is 32.30%; in the data set with TTR [2], 41.33%; with TTR [3] it was 19.00%; with TTR [4], 34.53%.
In the case of “CCUCCUCUGCCUUGCUGGAC (tested as dual guide RNA, chemistry not given here) [CR003336]”, the “Avg % Deletion” value in the data set with TTR [1] worked out at 0.80%; in the data set with TTR [2] it was 26.56%; in the data set on TTR [3] it was 25.78%; in the data set on TTR [4], 0.70%. The “Avg % Edit” value with TTR [1] came to 16.93%; with TTR [2], 30.05%; with TTR [3], 29.09%; in the data set on TTR [4], 39.17%. Further, the “Avg % Insert” value with TTR [1] came out at 16.20%; in the data set on TTR [2], 4.14%; in the data set on TTR [3], 3.31%; in the data set with TTR [4], 38.43%.
Consider “CUGAGGAGGAAUUUGUAGAA (tested as dual guide RNA, chemistry not given here) [CR003364]”, for which the “Avg % Deletion” value in the data set on TTR [1] was determined as 8.93%; in the data set with TTR [2], 23.03%; with TTR [3], 16.48%; in the data set on TTR [4], 6.53%. The “Avg % Edit” value was determined as 15.63% in the data set with TTR [1], 47.13% in the data set with TTR [2], 35.65% in the data set on TTR [3] and 23.30% in the data set with TTR [4]. Besides, the “Avg % Insert” value in the data set on TTR [1] is recorded as 6.73%; in the data set on TTR [2], 24.68%; with TTR [3] it was 19.17%; in the data set on TTR [4], 16.93%.
“UGUAGAAGGGAUAUACAAAG (tested as dual guide RNA, chemistry not given here) [CR003365]”: the “Avg % Deletion” value came to 6.67% in the data set on TTR [1], 43.82% in the data set on TTR [2], 24.61% in the data set with TTR [3] and 6.83% with TTR [4]. Moreover, the “Avg % Edit” value in the data set on TTR [1] stood at 26.90%; in the data set on TTR [2], 60.68%; in the data set with TTR [3] it was 36.43%; in the data set on TTR [4], 42.37%. The “Avg % Insert” value turned out to be 20.23% in the data set on TTR [1], 17.77% in the data set on TTR [2], 11.83% in the data set on TTR [3] and 35.57% in the data set on TTR [4].
For “AGACACCAAAUCUUACUGGA (tested as dual guide RNA, chemistry not given here) [CR003367]”, the “Avg % Deletion” value is recorded as 23.37% in the data set with TTR [1], 33.48% in the data set on TTR [2], 18.67% with TTR [3] and 16.37% in the data set on TTR [4]. For the same sequence, the “Avg % Edit” value is 37.33% with TTR [1], 66.29% in the data set on TTR [2], 47.11% in the data set on TTR [3] and 39.20% with TTR [4]. Moreover, the “Avg % Insert” value in the data set with TTR [1] is 14.03%; with TTR [2], 33.62%; in the data set with TTR [3] it was 28.44%; in the data set on TTR [4], 22.93%.
